Active and inactive are the calls of the source. The rule behind the calls is not given here.
Experiments:
[1] = test system: HCT-116; experiment: Induction of cell cycle arrest in human HCT-116 cells assessed as accumulation at G0/G1 phase at 2 uM after 24 hrs by propidium iodide-staining based flow cytometry (reference value: 58.01 +/- 1.77%); assay type: functional
[2] = test system: HCT-116; experiment: Antitumor activity against human HCT-116 cells xenografted with BALB/c nude mouse assessed as increase in cleaved PARP1 positive tumor cells at 5 to 10 mg/kg, ip administered every 3 days upto 22 days by immuno histochemistry assay; assay type: functional, organism-based; conditions: dose 5-10 mg/kg, time <= 22.0 day
[3] = test system: HCT-116; experiment: Induction of cell cycle arrest in human HCT-116 cells assessed as accumulation at G2/M phase at 2 uM after 24 hrs by propidium iodide-staining based flow cytometry (reference value: 23.25 +/- 1.38%); assay type: functional
[4] = Toxicity in BALB/c mouse assessed as diarrhea at less than 50 mg/kg, ip after 7 days; assay type: organism-based; conditions: in vivo, 168 h, time 7 day
[5] = test system: HCT-116; experiment: Induction of cell cycle arrest in human HCT-116 cells assessed as accumulation at G2/M phase at 5 uM after 24 hrs by propidium iodide-staining based flow cytometry (reference value: 23.25 +/- 1.38%); assay type: functional
[6] = Toxicity in BALB/c mouse assessed as diarrhea 50 mg/kg, ip after 7 days; assay type: organism-based; conditions: in vivo, 168 h, time 7 day
[7] = test system: HCT-116; experiment: Induction of cell cycle arrest in human HCT-116 cells assessed as accumulation at G2/M phase at 1 uM after 24 hrs by propidium iodide-staining based flow cytometry (reference value: 23.25 +/- 1.38%); assay type: functional
[8] = test system: HCT-116; experiment: Induction of cell cycle arrest in human HCT-116 cells assessed as accumulation at S phase at 2 uM after 24 hrs by propidium iodide-staining based flow cytometry (reference value: 17.17 +/- 0.18%); assay type: functional
[9] = Cmax in BALB/c mouse at 10 mg/kg; assay type: ADME, organism-based; design: dose 10 mg/kg; conditions: in vivo
[10] = test system: HCT-116; experiment: Induction of cell cycle arrest in human HCT-116 cells assessed as accumulation at G0/G1 phase at 1 uM after 24 hrs by propidium iodide-staining based flow cytometry (reference value: 58.01 +/- 1.77%); assay type: functional
[11] = Toxicity in BALB/c nude mouse assessed as diarrhea 25 mg/kg, ip after 7 days; assay type: organism-based; conditions: in vivo, 168 h, time 7 day
[12] = Toxicity in BALB/c nude mouse assessed as animal death 25 mg/kg, ip after 7 days; assay type: organism-based; conditions: in vivo, 168 h, time 7 day
[13] = Toxicity in BALB/c nude mouse assessed as animal death 50 mg/kg, ip after 7 days; assay type: organism-based; conditions: in vivo, 168 h, time 7 day
[14] = Metabolic stability in human liver microsomes assessed as half life at 0.5 uM by LC-MS analysis; assay type: ADME, Microsome
[15] = Clearance in BALB/c mouse at 5 mg/kg; assay type: ADME, organism-based; conditions: in vivo
[16] = Toxicity in BALB/c mouse assessed as diarrhea at 100 mg/kg, ip after 7 days; assay type: organism-based; conditions: in vivo, 168 h, time 7 day
[17] = biological target: T1, Glucocorticoid receptor (Homo sapiens) (UniProt P04150); experiment: Inhibition of GR (unknown origin) at 10 uM
T1 sequence (whole entry): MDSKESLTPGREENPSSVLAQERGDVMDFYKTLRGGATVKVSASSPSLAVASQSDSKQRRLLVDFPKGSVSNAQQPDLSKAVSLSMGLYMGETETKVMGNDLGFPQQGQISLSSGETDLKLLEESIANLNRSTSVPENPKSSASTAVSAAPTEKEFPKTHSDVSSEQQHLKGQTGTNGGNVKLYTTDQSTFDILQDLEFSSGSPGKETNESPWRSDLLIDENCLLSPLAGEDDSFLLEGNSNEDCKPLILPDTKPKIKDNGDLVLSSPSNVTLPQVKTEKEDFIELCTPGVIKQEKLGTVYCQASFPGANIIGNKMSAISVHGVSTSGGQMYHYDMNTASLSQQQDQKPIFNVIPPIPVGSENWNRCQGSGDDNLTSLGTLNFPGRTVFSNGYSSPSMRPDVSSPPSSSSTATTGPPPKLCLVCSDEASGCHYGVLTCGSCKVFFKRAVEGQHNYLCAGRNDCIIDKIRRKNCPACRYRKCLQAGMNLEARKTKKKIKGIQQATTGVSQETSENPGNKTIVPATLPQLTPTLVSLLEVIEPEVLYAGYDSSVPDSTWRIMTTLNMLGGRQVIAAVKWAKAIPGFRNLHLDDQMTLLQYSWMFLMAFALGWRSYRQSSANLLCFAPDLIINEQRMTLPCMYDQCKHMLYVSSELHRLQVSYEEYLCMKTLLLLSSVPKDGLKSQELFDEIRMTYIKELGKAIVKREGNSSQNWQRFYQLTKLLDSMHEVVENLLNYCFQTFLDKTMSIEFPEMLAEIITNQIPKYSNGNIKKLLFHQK

[18] = Clearance in BALB/c mouse at 20 mg/kg; assay type: ADME, organism-based; conditions: in vivo
[19] = test system: HCT-116; experiment: Induction of cell cycle arrest in human HCT-116 cells assessed as accumulation at G0/G1 phase at 5 uM after 24 hrs by propidium iodide-staining based flow cytometry (reference value: 58.01 +/- 1.77%); assay type: functional
[20] = Half life in BALB/c mouse at 5 mg/kg; assay type: ADME, organism-based; conditions: in vivo
[21] = Toxicity in BALB/c nude mouse assessed as changes in body weight at 5 to 10 mg/kg, ip administered every 3 days upto 22 days; assay type: organism-based; conditions: in vivo, 528 h, dose 5-10 mg/kg, time < 22 day
[22] = test system: U2OS; experiment: Induction of x-ray sensitivity in human U2OS cells; assay type: functional, cell-based
[23] = test system: HCT-116; experiment: Antitumor activity against human HCT-116 cells xenografted in ip dosed BALB/c nude mouse assessed as tumor growth inhibition; assay type: functional, organism-based; conditions: dose 5.0 mg/kg, DDE = dose-dependent effect
[24] = test system: HCT-116; experiment: Induction of P62 to RNF168 protein-protein interaction in human HCT-116 cells lysates chromatin enriched fraction by immunoblotting assay; assay type: subcellular
[25] = Clearance in BALB/c mouse at 10 mg/kg; assay type: ADME, organism-based; conditions: in vivo
[26] = test system: HCT-116; experiment: Induction of x-ray sensitivity in human HCT-116 cells; assay type: functional, cell-based
[27] = test system: U2OS; experiment: Cytotoxicity against human U2OS cells assessed as reduction in cell viability incubated for 72 hrs by MTS assay; assay type: functional, cell-based
[28] = Toxicity in BALB/c mouse assessed as animal death at 100 mg/kg, ip after 7 days; assay type: organism-based; conditions: in vivo, 168 h, time 7 day
[29] = AUCt in BALB/c mouse at 20 mg/kg; assay type: ADME, organism-based; design: dose 20 mg/kg; conditions: in vivo
[30] = test system: MGC-803; experiment: Cytotoxicity against human MGC-803 cells assessed as reduction in cell viability incubated for 72 hrs by MTS assay; assay type: functional, cell-based; conditions: MGC-803, 72 h
[31] = test system: A549; experiment: Cytotoxicity against human A549 cells assessed as reduction in cell viability incubated for 72 hrs by MTS assay; assay type: functional, cell-based; conditions: A549, 72 h
[32] = test system: Bacteria; experiment: Induction of bacteria His-tagged P62 to GST-tagged RNF168 protein-protein interaction by co-immunoprecipitation assay

COc1cc(-n2cc(-c3ccc4nc(N)nc(N)c4c3)nn2)cc(OC)c1OC
Activity [1]: 52.1%
Activity [2]: Active
Activity [3]: 30.79%
Activity [4]: Non-Toxic
Activity [5]: 35.34%
Activity [6]: Toxic
Activity [7]: 29.33%
Activity [8]: 21.51%
Cmax [9]: 39.9 ng/mL
Activity [10]: 53%
Activity [11]: Toxic
Activity [12]: Toxic
Activity [13]: Toxic
half-life at 0.5 µM [14]: 7.17 h
clearance [15]: 327 mL/min/kg
Activity [16]: Toxic
inhibition [17]: Active
clearance [18]: 243 mL/min/kg
Activity [19]: 50.82%
half-life [20]: 16.2 h
Activity [21]: Non-Toxic
Activity [22]: Active
Activity [23]: Dde
Activity [24]: Active
clearance [25]: 276 mL/min/kg
Activity [26]: Active
IC50 [27]: 3.64 µM
Activity [28]: Toxic
AUC(0-t) [29]: 1000 ng·h/mL
IC50 [30]: 1.88 µM
IC50 [31]: 1.18 µM
Activity [32]: Active

From ChEMBL document CHEMBL5096229, “A 1,2,3-Triazole Derivative of Quinazoline Exhibits Antitumor Activity by Tethering RNF168 to SQSTM1/P62” (J Med Chem, 2022)
